Earlier results in patent publication US20230380420A1, “HARD SURFACE DISINFECTING COMPOSITION” (priority 2020, published 2023).
Like-named read-outs stand apart in the source and are kept apart here.

Conditions: room temperature

## COCCO [ethylene glycol monomethyl ether]
Glycol ethers
  ~δp: ~9.2 MPa^1/2

## CCOCCO [ethylene glycol monoethyl ether]
Glycol ethers
  ~δp: ~9.2 MPa^1/2

## CCCCC(CC)CO (stereo not drawn) [2-ethyl-hexanol]
alcohols
  ~δp: ~3.3 MPa^1/2

## OCCOc1ccccc1 [ethylene glycol monophenyl ether]
Glycol ethers
  ~δp: ~5.7 MPa^1/2

## CC(C)O [2-propanol]
alcohols
  ~δp: ~6.1 MPa^1/2

## OC1C=CCC1 (stereo not drawn) [2-cyclopentenyl alcohol]
alcohols
  ~δp: ~7.6 MPa^1/2

## CC(C)OCCO [ethylene glycol monoisopropyl ether]
Glycol ethers
  ~δp: ~8.2 MPa^1/2

## CCCO [1-propanol]
alcohols
  ~δp: ~6.8 MPa^1/2

## CCCCCO [1-pentanol]
alcohols
  ~δp: ~4.5 MPa^1/2

## CO [methanol]
alcohols
  ~δp: ~12.3 MPa^1/2

## CCCCOCCOCCO [diethylene glycol mono-n-butyl ether]
Glycol ethers
  ~δp: ~7.0 MPa^1/2

## CCCC(C)O (stereo not drawn) [2-pentanol]
alcohols
  ~δp: ~6.4 MPa^1/2

## CC(C)CCCCCO [isooctyl alcohol]
alcohols
  ~δp: ~7.3 MPa^1/2

## CCCCCCCC/C=C\CCCCCCCCOCCOCCOCCO [triethylene glycol monooleyl ether]
Glycol ethers
  ~δp: ~3.1 MPa^1/2

## CCCCOCCO [ethylene glycol monobutyl ether]
Glycol ethers
  ~δp: ~5.1 MPa^1/2

## COCCOCCO [diethylene glycol monomethyl ether]
Glycol ethers
  ~δp: ~7.8 MPa^1/2

## OC1CCCCC1 [cyclohexanol]
alcohols
  ~δp: ~4.1 MPa^1/2

## CCCCCCCCO [octanol]
alcohols
  ~δp: ~3.3 MPa^1/2

## CCCCCCCCC(C)O (stereo not drawn) [2-decanol]
alcohols
  ~δp: ~10.0 MPa^1/2

## CCOCC(C)O (stereo not drawn) [propylene glycol monoethyl ether]
Glycol ethers
  ~δp: ~6.5 MPa^1/2

## C=CCO [2-propenol]
alcohols
  ~δp: ~10.8 MPa^1/2

## CC(O)COC(C)C (stereo not drawn) [propylene glycol monoisopropyl ether]
Glycol ethers
  ~δp: ~6.1 MPa^1/2

## CCCOCC(C)O (stereo not drawn) [propylene glycol monopropyl ether]
Glycol ethers
  ~δp: ~5.6 MPa^1/2

## OCc1ccc(Cl)cc1 [4-chlorobenzyl alcohol]
alcohols
  ~δp: ~7.5 MPa^1/2

## CCCCCCCCCCO [1-decanol]
alcohols
  ~δp: ~10.0 MPa^1/2

## CCCCOCC(C)O (stereo not drawn) [propylene glycol monobutyl ether]
Glycol ethers
  ~δp: ~4.5 MPa^1/2

## CCO [ethanol]
alcohols
  ~δp: ~8.8 MPa^1/2

## CCCCO [1-butanol]
alcohols
  ~δp: ~5.7 MPa^1/2

## CCOCCOCCO [diethylene glycol monoethyl ether]
Glycol ethers
  ~δp: ~9.2 MPa^1/2

## CCC(CC)CO [2-ethyl-1-butanol]
alcohols
  ~δp: ~4.3 MPa^1/2

## OCCOCc1ccccc1 [ethylene glycol monobenzyl ether]
Glycol ethers
  ~δp: ~5.9 MPa^1/2

## CC(C)COCC(C)O (stereo not drawn) [propylene glycol monoisobutyl ether]
Glycol ethers
  ~δp: ~4.7 MPa^1/2

## COCC(C)O (stereo not drawn) [propylene glycol monomethyl ether]
Glycol ethers
  ~δp: ~6.3 MPa^1/2

## CCCCCCCC/C=C\CCCCCCCCO [oleyl alcohol]
alcohols
  ~δp: ~2.6 MPa^1/2

## O [water]
  δp: ≈ 16.0 MPa^1/2

## COCCOCCOCCO [triethylene glycol monomethyl ether]
Glycol ethers
  ~δp: ~7.6 MPa^1/2

## CCCOCCO [ethylene glycol monopropyl ether]
Glycol ethers
  ~δp: ~8.2 MPa^1/2

## OCC(Cl)CCl (stereo not drawn) [2,3-dichloropropanol]
alcohols
  ~δp: ~9.2 MPa^1/2

## CC(C)(C)O [t-butyl alcohol]
alcohols
  ~δp: ~5.1 MPa^1/2
